Here are results for 70 compounds from US7511041B2, “Fused azole-pyrimidine derivatives” (Bayer Pharmaceuticals Corporation, priority 2002, dated 2009).

In general, melting point refers to the temperature of the solid-liquid transition.

In the case of `Cl.O/C(=C\C1=Nc2ccccc2C2=NCCN12)c1ccncc1` [Example 1-176], the melting point was 235 °C (dec.).
`Cl.O/C(=C\C1=Nc2ccccc2C2=NCCN12)c1csc2ccccc12` [Example 1-181]: the melting point is greater than 300 °C.
Regarding `COc1c(OCc2nn[nH]n2)ccc2c1N=C(/C=C(\O)c1cccnc1)N1CCN=C21.Cl` [Example 1-197], the melting point fell in the range of 217 to 218 °C.
With `Cl.O/C(=C\C1=Nc2c(CN3CCOCC3)cccc2C2=NCCN12)c1cccnc1` [Example 1-207], the melting point was 259 °C (dec.).
In turn, `CC(=O)Nc1ccc(/C(O)=C/C2=Nc3c(CN4CCOCC4)cccc3C3=NCCN23)cn1.Cl` [Example 1-209] showed a melting point greater than 260 °C.
As for `Cc1ccc(C(=O)NC2=Nc3cc(N4CCOCC4)ccc3C3=NCCN23)cn1.Cl` [Example 2-14], the melting point is 267 °C (dec.).
Next, `CC(=O)Nc1ccc(C(=O)NC2=Nc3cc(N4CCOCC4)ccc3C3=NCCN23)cc1` [Example 2-15]: 227 °C; `COc1ccc2c(c1)N=C(NC(=O)c1cccnc1)N1CCN=C21.Cl` [Example 2-21]: 292 °C (dec.); `COc1ccc2c(c1)N=C(NC(=O)c1ccc(N)nc1)N1CCN=C21.Cl` [Example 2-24]: 273 °C (dec.).
Next, `COc1ccc2c(c1)N=C(NC(=O)c1ccc3[nH]cnc3c1)N1CCN=C21.Cl` [Example 2-26]: 233 °C; `Cc1ccc2c(c1)N=C(NC(=O)c1cccnc1)N1CCN=C21.Cl` [Example 2-28]: 315 °C.
Next, `Cc1ccc2c(c1)N=C(NC(=O)c1cccs1)N1CCN=C21.Cl` [Example 2-32]: 276 °C; `Cl.O=C(NC1=Nc2cc(Cl)ccc2C2=NCCN12)c1ccc2[nH]cnc2c1` [Example 2-40]: 270 °C.
In the case of `COc1ccc2c(c1OC)N=C(NC(=O)c1ccc3[nH]cnc3c1)N1CCN=C21.Cl` [Example 2-50], the melting point was 278 °C (dec.).
As to `COc1ccc2c(c1OC)N=C(NC(=O)c1cnc3[nH]cnc3c1)N1CCN=C21.Cl` [Example 2-52], the melting point was 210 °C (dec.).
`COc1cc2c(cc1OC)C1=NCCN1C(NC(=O)c1cncc(O)c1)=N2.Cl` [Example 2-55]: the melting point was 260 °C (dec.).
`COc1cc2c(cc1OC)C1=NCCN1C(NC(=O)c1ccc(NC(C)=O)nc1)=N2.Cl` [Example 2-58] returned a melting point of 279 °C.
Take `COc1cc2c(cc1OC)C1=NCCN1C(NC(=O)c1ccc3[nH]cnc3c1)=N2.Cl` [Example 2-61]: the melting point is 276 °C.
With `COc1ccc2c(c1Br)N=C(NC(=O)c1cccnc1)N1CCN=C21.Cl` [Example 2-66], the melting point worked out at 298 °C.
The same measure for `COc1cc(OC)c2c(c1)C1=NCCN1C(NC(=O)c1ccc(NC(C)=O)nc1)=N2.Cl` [Example 2-71]: 270 °C (dec.).
`COc1cc(OC)c2c(c1)C1=NCCN1C(NC(=O)c1ccc3[nH]cnc3c1)=N2.Cl` [Example 2-73]: the melting point is 289 °C (dec.).
On to `COc1cc2c(c(OC)c1C)N=C(NC(=O)c1cccnc1C)N1CCN=C21.Cl` [Example 2-78], for which the melting point is 230 °C (dec.).
Take `COc1cc2c(c(OC)c1C)N=C(NC(=O)c1ccc3[nH]cnc3c1)N1CCN=C21.Cl` [Example 2-82]: the melting point was 280 °C (dec.).
In turn, `Cl.O=C(NC1=Nc2ccc(Cl)cc2C2=NCCN12)c1cccnc1` [Example 2-85] gave a melting point of 309 °C.
In turn, `Cl.O=C(NC1=Nc2ccc(Br)cc2C2=NCCN12)c1cccnc1` [Example 2-88] came in with a melting point of 316 °C.
Compound `C=Cc1ccc2c(c1)C1=NCCN1C(NC(=O)c1cccnc1)=N2.Cl` [Example 2-96] came in with a melting point of 275 to 277 °C.
Next, `Cl.O=C(NC1=Nc2c(F)cccc2C2=NCCN12)c1ccc2[nH]cnc2c1` [Example 2-102]: greater than 300 °C.
Next, `Cc1cccc2c1N=C(NC(=O)c1cccnc1)N1CCN=C21.Cl` [Example 2-108]: greater than 290 °C; `Cc1cccc2c1N=C(NC(=O)c1ccc3[nH]cnc3c1)N1CCN=C21.Cl` [Example 2-110]: greater than 290 °C.
In turn, `Cl.O=C(NC1=Nc2c(cccc2C(F)(F)F)C2=NCCN12)c1ccc2[nH]cnc2c1` [Example 2-113] gave a melting point of 270 °C.
Turning to `COc1cccc2c1N=C(NC(=O)c1cccnc1)N1CCN=C21.Cl` [Example 2-115], the melting point was 237 °C (dec.).
For the compound `COc1cccc2c1N=C(NC(=O)c1cccnc1Cl)N1CCN=C21.Cl` [Example 2-119], the melting point was 266 °C (dec.).
As for `COc1cccc2c1N=C(NC(=O)c1ccc3[nH]cnc3c1)N1CCN=C21.Cl` [Example 2-125], the melting point came to 238 °C.
Take `COc1cccc2c1N=C(NC(=O)c1cc3cccnc3nc1C)N1CCN=C21.Cl` [Example 2-127]: the melting point is 225 °C (dec.).
Regarding `COc1cccc2c1N=C(NC(=O)c1cc3cccnc3nc1C(F)(F)F)N1CCN=C21.Cl` [Example 2-129], the melting point was 225 °C (dec.).
Regarding `Cc1ncccc1C(=O)NC1=Nc2ccccc2C2=NCCN12.Cl` [Example 2-132], the melting point was 277 °C (dec.).
Turning to `Cc1ccncc1C(=O)NC1=Nc2ccccc2C2=NCCN12.Cl` [Example 2-137], the melting point is 291 °C (dec.).
With `Cl.O=C(NC1=Nc2ccccc2C2=NCCN12)c1cncc(O)c1` [Example 2-139], the melting point fell in the range of 296 to 297 °C.
Turning to `COc1cncc(C(=O)NC2=Nc3ccccc3C3=NCCN23)c1.Cl` [Example 2-141], the melting point is 272 °C (dec.).
The same measure for `Cc1ccc(C(=O)NC2=Nc3ccccc3C3=NCCN23)cn1.Cl` [Example 2-148]: 310 °C (dec.).
For the compound `Cl.Nc1ccc(C(=O)NC2=Nc3ccccc3C3=NCCN23)cn1` [Example 2-150], the melting point was 290 °C (dec.).
As to `CC(=O)Nc1ccc(C(=O)NC2=Nc3ccccc3C3=NCCN23)cn1.Cl` [Example 2-152], the melting point is 312 °C (dec.).
Take `CNc1ccc(C(=O)NC2=Nc3ccccc3C3=NCCN23)cn1.Cl` [Example 2-154]: the melting point is 300 °C (dec.).
With `Cc1nc(N)ccc1C(=O)NC1=Nc2ccccc2C2=NCCN12.Cl` [Example 2-158], the melting point was 289 °C (dec.).
The same measure for `Cc1cc(C(=O)NC2=Nc3ccccc3C3=NCCN23)cnc1N.Cl` [Example 2-160]: 311 °C (dec.).
For `Cc1nc2ccccn2c1C(=O)NC1=Nc2ccccc2C2=NCCN12.Cl` [Example 2-171], the melting point is 328 °C (dec.).
Take `Cl.O=C(NC1=Nc2ccccc2C2=NCCN12)c1cnc2[nH]cnc2c1` [Example 2-173]: the melting point is 287 °C (dec.).
Turning to `Cc1nc2ncccc2cc1C(=O)NC1=Nc2ccccc2C2=NCCN12.Cl` [Example 2-175], the melting point was 270 °C (dec.).
Next, `Cl.O=C(NC1=Nc2ccccc2C2=NCCN12)c1sccc1Cl` [Example 2-181]: 298 °C (dec.).
As to `Cl.O=C(NC1=Nc2ccccc2C2=NCCN12)c1ccsc1` [Example 2-184], the melting point is 297 °C (dec.).
In turn, `CCn1nc(C)cc1C(=O)NC1=Nc2ccccc2C2=NCCN12.Cl` [Example 2-192] displayed a melting point of 271 to 272 °C.
Compound `Cl.O=C(NC1=Nc2ccccc2C2=NCCN12)c1c[nH]cn1` [Example 2-194] registered a melting point of 309 to 310 °C.
As to `Cl.O=C(NC1=Nc2cc(OCCO)ccc2C2=NCCN12)c1cccnc1` [Example 2-198], the melting point is 249 °C (dec.).
As to `Cl.O=C(NC1=Nc2cc(OCCOCCO)ccc2C2=NCCN12)c1cccnc1` [Example 2-202], the melting point was 229 °C (dec.).
For `Cl.O=C(NC1=Nc2cc(OCC(=O)N3CCOCC3)ccc2C2=NCCN12)c1cccnc1` [Example 2-208], the melting point was found to be 227 °C.
With `COc1c(C)cc(C(=O)NC2=Nc3ccccc3C3=NCCN23)cc1C.Cl` [Example 2-221], the melting point is 288 °C (dec.).
`Cc1cc(C(=O)NC2=Nc3ccccc3C3=NCCN23)cc(C)c1[N+](=O)[O-].Cl` [Example 2-223]: the melting point was 313 °C (dec.).
In turn, `O=C(NC1=Nc2ccccc2C2=NCCN12)c1ccc(Cl)cc1.O=C(O)C(F)(F)F` [Example 2-230] displayed a melting point of 243 to 245 °C.
The same measure for `COc1cc(C(=O)NC2=Nc3ccccc3C3=NCCN23)cc(OC)c1C.Cl` [Example 2-242]: 321 °C (dec.); for `CSc1ccc(C(=O)NC2=Nc3ccccc3C3=NCCN23)cc1.Cl` [Example 2-244]: 292 °C (dec.); for `CS(=O)(=O)c1ccc(C(=O)NC2=Nc3ccccc3C3=NCCN23)cc1.Cl` [Example 2-246]: 320 °C (dec.).
Regarding `Cl.NS(=O)(=O)c1ccc(C(=O)NC2=Nc3ccccc3C3=NCCN23)cc1` [Example 2-248], the melting point is 308 °C (dec.).
For the compound `Cl.NS(=O)(=O)c1ccc(C(=O)NC2=Nc3ccccc3C3=NCCN23)c(Cl)c1` [Example 2-250], the melting point is 300 °C (dec.).
The same measure for `O=C(NC1=Nc2ccccc2C2=NCCN12)c1cccc([N+](=O)[O-])c1.O=C(O)C(F)(F)F` [Example 2-253]: 238 to 239 °C; for `O=C(NC1=Nc2ccccc2C2=NCCN12)c1ccc([N+](=O)[O-])cc1.O=C(O)C(F)(F)F` [Example 2-255]: 265 °C (dec.); for `CN(C)c1cccc(C(=O)NC2=Nc3ccccc3C3=NCCN23)c1.Cl` [Example 2-259]: 266 °C (dec.).
With `CN(C=O)c1ccc(C(=O)NC2=Nc3ccccc3C3=NCCN23)cc1.Cl` [Example 2-264], the melting point was 304 °C (dec.).
For the compound `Cl.O=C(NC1=Nc2ccccc2C2=NCCN12)c1ccc(-n2cccc2)cc1` [Example 2-267], the melting point is 309 °C (dec.).
Take `Cl.O=C(NC1=Nc2ccccc2C2=NCCN12)c1ccc(-n2ccnc2)cc1` [Example 2-269]: the melting point is 324 °C (dec.).
For `Cl.O=C(NC1=Nc2ccccc2C2=NCCN12)c1ccc(-n2cccn2)cc1` [Example 2-271], the melting point is 319 °C (dec.).
